# Reference: ChEMBL document CHEMBL1201862, “PubChem BioAssay data set” (2004)
# Activity calls are given as the source filed them.
# Key:
# [1] = HEK293T cytotoxicity, dose response, cytotoxicity control for miR-122 modulator project, cell-based, activator set, cherry-pick (AID 720690); type: functional;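 note: HEK293T human cells scored for general mammalian cytotoxicity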
# [2] = HepG2 cell cytotoxicity, dose response, cytotoxicity control for Shn3 inhibitor project, CellTiter-Glo, cherry-picked (AID 624134); type: functional, cell-based
# [3] = HEK293T cytotoxicity, dose response, cytotoxicity control for miR-122 modulator project, cell-based, inhibitor set, cherry-pick, set 2 (AID 720697); type: functional
# [4] = target: T1, RNA-binding protein pos-1 (Caenorhabditis elegans, UniProt G5EF15); assay: inhibitors of POS-1/mex-3 RNA binding, dose response, biochemical, fluorescence polarization (AID 1964);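 note: purified POS-1 fused to maltose binding protein made in E. coli; potency of compounds blocking POS-1 binding to fluorescent RNA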
# T1 sequence (G5EF15 whole entry): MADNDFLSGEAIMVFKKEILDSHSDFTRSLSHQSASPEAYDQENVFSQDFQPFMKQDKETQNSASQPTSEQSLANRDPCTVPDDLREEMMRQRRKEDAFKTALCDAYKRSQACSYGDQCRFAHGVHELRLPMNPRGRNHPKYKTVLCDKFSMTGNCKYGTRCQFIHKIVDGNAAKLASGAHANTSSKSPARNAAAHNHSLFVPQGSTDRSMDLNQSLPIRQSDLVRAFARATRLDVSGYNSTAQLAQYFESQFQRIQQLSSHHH
# [5] = target: Calcium/calmodulin-dependent protein kinase type II subunit alpha (Homo sapiens, UniProt Q9UQM7); assay: Navigating the Kinome. Panel member name: CAMK2A; type: functional
# Calcium/calmodulin-dependent protein kinase type II subunit alpha, sequence (Q9UQM7 whole entry): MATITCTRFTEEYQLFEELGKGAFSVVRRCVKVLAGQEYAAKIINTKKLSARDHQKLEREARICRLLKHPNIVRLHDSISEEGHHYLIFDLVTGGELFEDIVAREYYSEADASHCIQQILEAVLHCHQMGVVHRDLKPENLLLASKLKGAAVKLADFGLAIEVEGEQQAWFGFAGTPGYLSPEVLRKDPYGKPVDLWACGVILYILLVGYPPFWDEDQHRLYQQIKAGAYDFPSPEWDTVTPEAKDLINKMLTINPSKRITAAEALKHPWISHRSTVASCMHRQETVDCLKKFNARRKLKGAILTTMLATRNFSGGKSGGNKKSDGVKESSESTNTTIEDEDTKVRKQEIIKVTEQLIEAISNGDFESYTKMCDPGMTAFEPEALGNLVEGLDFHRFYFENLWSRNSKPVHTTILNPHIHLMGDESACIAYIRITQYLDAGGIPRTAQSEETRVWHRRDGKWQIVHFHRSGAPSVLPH
# Aurora kinase A = target: T2, Aurora kinase A (Homo sapiens, UniProt O14965); type: functional;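 note: value from the Navigating the Kinome kinase panel profiling, panel entry STK6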
# T2 sequence (O14965 whole entry): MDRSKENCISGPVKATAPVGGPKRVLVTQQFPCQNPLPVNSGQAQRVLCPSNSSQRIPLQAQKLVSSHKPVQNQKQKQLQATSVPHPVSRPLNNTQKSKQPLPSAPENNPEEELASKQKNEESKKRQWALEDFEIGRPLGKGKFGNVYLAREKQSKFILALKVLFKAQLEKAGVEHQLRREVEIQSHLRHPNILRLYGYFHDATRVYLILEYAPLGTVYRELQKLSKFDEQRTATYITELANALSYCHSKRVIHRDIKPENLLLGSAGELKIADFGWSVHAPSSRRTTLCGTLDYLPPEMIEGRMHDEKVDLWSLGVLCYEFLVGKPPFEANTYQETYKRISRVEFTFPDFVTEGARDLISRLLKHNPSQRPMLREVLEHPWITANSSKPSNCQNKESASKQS
# [6] = target: Leucine-rich repeat serine/threonine-protein kinase 2 (Homo sapiens, UniProt Q5S007); type: functional;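 note: value from a broad kinome-wide panel profiling study in which LRRK2 was one of the kinases tested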
# [7] = target: Mitogen-activated protein kinase kinase kinase kinase 2 (Homo sapiens, UniProt Q12851); type: functional;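 note: measured as one member of a kinome-wide kinase panel, with MAP4K2 as the panel entry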
# [8] = target: Tyrosine-protein kinase BTK (Homo sapiens, UniProt Q06187); type: functional
# Tyrosine-protein kinase BTK, sequence (Q06187 whole entry): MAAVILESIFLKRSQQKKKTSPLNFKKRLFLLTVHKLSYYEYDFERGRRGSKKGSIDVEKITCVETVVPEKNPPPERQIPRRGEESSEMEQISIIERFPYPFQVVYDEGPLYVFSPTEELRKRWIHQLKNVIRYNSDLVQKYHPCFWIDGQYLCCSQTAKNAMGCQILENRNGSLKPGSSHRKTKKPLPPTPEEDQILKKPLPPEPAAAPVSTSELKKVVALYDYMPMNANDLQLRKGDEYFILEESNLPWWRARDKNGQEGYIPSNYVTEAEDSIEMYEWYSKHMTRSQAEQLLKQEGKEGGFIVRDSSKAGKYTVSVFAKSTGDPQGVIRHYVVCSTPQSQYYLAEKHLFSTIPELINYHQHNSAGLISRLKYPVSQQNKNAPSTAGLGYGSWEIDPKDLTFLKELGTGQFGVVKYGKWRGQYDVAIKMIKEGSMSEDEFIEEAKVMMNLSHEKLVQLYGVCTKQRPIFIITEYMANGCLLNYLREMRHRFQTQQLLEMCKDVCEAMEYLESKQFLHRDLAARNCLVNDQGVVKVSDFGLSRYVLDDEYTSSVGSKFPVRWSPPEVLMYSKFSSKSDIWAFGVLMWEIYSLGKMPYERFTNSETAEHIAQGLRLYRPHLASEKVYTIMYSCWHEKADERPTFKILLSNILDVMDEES
# [9] = target: Insulin-like growth factor 1 receptor (Homo sapiens, UniProt P08069); assay: Navigating the Kinome. Panel member name: IGF1R; type: functional
# Insulin-like growth factor 1 receptor, sequence (P08069 31-736 limits assumed): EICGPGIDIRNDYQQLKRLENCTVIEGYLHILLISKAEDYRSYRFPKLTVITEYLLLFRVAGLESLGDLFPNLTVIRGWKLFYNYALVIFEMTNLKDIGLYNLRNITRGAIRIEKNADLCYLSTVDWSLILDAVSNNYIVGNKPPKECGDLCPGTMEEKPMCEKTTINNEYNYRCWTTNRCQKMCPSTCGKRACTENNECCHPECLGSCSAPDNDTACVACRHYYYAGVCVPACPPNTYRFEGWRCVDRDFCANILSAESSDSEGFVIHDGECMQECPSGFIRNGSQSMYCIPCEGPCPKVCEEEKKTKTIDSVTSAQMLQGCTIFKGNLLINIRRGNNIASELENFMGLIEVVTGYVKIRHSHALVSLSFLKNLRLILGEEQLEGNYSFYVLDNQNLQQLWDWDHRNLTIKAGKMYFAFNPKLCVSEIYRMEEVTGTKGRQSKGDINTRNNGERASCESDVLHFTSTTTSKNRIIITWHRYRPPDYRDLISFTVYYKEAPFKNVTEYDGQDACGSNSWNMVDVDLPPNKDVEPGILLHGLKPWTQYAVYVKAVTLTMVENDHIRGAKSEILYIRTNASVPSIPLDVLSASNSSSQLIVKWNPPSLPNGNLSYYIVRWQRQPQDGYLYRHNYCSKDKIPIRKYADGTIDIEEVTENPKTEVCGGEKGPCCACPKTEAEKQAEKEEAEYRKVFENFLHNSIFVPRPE
# Insulin-like growth factor 1 receptor, sequence (P08069 741-1367 limits assumed): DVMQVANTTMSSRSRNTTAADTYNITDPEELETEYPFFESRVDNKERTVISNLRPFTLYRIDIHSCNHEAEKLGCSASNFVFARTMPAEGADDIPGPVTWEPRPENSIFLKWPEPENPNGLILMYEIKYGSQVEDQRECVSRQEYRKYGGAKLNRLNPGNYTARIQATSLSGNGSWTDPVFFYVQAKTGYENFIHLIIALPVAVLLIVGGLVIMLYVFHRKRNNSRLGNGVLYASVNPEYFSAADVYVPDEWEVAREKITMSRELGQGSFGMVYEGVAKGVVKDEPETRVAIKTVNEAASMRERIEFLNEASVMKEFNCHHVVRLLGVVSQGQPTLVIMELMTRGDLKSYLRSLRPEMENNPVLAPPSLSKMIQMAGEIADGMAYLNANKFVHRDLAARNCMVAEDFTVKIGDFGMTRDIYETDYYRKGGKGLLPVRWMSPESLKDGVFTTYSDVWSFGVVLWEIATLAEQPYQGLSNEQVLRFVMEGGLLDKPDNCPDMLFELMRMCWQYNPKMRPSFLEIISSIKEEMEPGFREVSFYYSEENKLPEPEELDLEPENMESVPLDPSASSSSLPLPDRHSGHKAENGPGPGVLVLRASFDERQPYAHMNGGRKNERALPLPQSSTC
# [10] = target: cAMP-dependent protein kinase catalytic subunit alpha (Homo sapiens, UniProt P17612); type: functional
# [11] = target: Casein kinase I isoform alpha (Homo sapiens, UniProt P48729); type: functional
# Casein kinase I isoform alpha, sequence (P48729 whole entry, canonical isoform): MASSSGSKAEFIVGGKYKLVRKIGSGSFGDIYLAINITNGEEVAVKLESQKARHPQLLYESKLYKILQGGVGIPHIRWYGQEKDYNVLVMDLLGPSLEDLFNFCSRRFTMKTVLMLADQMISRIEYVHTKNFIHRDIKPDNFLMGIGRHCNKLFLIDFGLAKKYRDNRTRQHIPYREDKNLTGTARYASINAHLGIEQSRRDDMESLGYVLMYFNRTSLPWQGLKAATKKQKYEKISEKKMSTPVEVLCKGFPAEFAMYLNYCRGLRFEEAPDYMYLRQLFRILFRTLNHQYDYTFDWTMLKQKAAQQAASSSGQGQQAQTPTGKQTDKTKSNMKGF
# [12] = target: Macrophage colony-stimulating factor 1 receptor (Homo sapiens, UniProt P07333); type: functional;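 note: value comes from the Navigating the Kinome screening panel, CSF1R member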
# Macrophage colony-stimulating factor 1 receptor, sequence (P07333 whole entry): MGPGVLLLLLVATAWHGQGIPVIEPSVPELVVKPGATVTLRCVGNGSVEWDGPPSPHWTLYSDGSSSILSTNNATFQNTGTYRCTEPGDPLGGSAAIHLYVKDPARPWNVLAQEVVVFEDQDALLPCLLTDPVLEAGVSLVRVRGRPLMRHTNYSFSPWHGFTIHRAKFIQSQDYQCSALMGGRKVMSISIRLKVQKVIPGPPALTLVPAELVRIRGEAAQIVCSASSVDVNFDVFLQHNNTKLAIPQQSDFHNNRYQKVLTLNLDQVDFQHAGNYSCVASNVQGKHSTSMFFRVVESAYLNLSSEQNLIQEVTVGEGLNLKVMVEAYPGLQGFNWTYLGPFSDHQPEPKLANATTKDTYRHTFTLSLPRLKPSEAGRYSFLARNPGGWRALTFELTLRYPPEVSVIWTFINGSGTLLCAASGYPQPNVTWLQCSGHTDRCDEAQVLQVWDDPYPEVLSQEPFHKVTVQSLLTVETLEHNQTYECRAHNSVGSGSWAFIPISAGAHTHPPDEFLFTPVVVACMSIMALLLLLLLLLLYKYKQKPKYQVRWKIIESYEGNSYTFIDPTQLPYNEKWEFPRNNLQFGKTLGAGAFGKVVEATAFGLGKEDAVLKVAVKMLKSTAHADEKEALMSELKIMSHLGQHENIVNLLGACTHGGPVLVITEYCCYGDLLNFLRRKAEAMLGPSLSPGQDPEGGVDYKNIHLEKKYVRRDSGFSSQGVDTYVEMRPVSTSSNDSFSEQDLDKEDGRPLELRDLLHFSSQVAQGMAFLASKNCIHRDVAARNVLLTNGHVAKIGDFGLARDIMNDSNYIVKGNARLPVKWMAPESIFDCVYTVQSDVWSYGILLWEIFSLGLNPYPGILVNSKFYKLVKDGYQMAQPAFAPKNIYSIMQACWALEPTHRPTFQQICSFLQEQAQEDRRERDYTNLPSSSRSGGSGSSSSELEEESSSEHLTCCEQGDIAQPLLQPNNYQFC
# [13] = target: T3, Tyrosine-protein kinase receptor TYRO3 (Homo sapiens, UniProt Q06418); type: functional;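 note: TYRO3 value obtained as one member of a kinome-wide profiling panel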
# T3 sequence (Q06418 whole entry): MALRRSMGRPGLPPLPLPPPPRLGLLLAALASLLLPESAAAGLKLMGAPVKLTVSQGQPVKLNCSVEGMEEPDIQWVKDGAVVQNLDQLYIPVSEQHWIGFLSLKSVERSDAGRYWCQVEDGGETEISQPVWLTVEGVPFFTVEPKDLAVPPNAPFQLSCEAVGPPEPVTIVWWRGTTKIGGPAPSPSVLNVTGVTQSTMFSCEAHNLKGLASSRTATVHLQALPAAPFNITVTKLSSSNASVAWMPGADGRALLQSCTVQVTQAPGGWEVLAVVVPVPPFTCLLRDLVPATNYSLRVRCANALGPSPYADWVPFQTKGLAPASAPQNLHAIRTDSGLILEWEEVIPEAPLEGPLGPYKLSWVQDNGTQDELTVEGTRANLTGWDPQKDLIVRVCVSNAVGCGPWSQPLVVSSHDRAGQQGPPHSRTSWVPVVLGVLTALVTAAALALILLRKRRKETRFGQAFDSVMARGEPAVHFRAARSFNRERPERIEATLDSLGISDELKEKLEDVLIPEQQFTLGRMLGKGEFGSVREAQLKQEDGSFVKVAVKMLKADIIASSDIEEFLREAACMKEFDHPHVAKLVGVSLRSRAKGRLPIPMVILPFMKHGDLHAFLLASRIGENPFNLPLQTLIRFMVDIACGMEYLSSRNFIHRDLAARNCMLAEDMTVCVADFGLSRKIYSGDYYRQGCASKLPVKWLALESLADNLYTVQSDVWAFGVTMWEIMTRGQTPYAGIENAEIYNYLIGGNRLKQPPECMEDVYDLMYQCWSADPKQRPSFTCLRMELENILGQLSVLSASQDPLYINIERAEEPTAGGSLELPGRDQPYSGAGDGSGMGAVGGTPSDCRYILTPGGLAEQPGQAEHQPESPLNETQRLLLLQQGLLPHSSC
# [14] = target: T4, cAMP-dependent protein kinase catalytic subunit PRKX (Homo sapiens, UniProt P51817); type: functional
# T4 sequence (P51817 whole entry): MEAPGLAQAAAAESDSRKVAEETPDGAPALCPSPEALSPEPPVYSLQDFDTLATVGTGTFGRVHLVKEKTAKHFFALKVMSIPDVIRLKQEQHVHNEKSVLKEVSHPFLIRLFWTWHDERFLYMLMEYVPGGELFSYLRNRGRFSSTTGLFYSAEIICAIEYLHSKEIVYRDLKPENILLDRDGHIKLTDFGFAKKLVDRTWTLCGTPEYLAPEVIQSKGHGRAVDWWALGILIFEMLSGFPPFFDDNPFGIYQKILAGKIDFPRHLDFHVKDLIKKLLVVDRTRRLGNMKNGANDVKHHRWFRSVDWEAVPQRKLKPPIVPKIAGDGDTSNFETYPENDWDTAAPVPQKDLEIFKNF
# [15] = target: Vascular endothelial growth factor receptor 1 (Homo sapiens, UniProt P17948); type: functional;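 note: measured within a kinome-wide profiling panel, FLT1 as the panel member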
# [16] = target: Cyclin-dependent kinase 8 (Homo sapiens, UniProt P49336); assay: Navigating the Kinome. Panel member name: CDK8; type: functional
# [17] = target: Serine/threonine-protein kinase D3 (Homo sapiens, UniProt O94806); type: functional;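 note: determined within a kinase panel screen, with PRKCN as the panel member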
# Serine/threonine-protein kinase D3, sequence (O94806 whole entry): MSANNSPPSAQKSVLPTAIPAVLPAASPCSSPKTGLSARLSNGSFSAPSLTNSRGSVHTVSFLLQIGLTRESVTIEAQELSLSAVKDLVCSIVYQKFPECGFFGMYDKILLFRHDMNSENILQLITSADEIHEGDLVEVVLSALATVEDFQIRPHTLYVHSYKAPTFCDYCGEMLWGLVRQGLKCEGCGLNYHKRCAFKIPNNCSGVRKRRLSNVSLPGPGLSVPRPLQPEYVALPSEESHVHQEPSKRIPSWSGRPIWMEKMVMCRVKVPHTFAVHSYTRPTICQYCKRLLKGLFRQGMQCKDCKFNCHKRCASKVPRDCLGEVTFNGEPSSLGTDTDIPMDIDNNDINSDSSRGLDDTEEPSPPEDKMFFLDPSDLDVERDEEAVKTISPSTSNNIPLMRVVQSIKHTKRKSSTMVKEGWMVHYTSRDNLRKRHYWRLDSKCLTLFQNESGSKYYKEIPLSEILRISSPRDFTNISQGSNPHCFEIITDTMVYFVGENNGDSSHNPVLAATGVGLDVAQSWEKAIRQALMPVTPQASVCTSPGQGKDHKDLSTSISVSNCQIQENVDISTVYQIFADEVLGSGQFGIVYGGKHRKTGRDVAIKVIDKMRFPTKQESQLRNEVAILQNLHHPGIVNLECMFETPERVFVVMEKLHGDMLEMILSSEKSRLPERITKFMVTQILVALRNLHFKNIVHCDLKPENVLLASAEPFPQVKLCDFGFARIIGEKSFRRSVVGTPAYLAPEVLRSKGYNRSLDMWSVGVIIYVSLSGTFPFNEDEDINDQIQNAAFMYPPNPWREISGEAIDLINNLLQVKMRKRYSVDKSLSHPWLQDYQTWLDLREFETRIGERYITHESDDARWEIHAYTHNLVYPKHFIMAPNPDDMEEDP
# [18] = target: ALK tyrosine kinase receptor (Homo sapiens, UniProt Q9UM73); type: functional;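 note: ALK tested as one member of a kinase panel screen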
# [19] = target: Hepatocyte growth factor receptor (Homo sapiens, UniProt P08581); type: functional;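 note: kinase panel profiling across the kinome, with MET as the panel member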
Compound,AC50 [1],AC50 [2],AC50 [3],EC50 [4],Ki [5],Ki (Aurora kinase A),Ki [6],Ki [7],Ki [8],Ki [9],Ki [10],Ki [11],Ki [12],Ki [13],Ki [14],Ki [15],Ki [16],Ki [17],Ki [18],Ki [19]
Cc1ccc(C(=O)OCn2ncc(Cl)c(Cl)c2=O)cc1,4.47 µM (active),33.2 µM (active),4.05 µM (active),–,–,–,–,–,–,–,–,–,–,–,–,–,–,–,–,–
O=C(O)CC(C(=O)O)N1C(=O)/C(=C/C=C/c2ccco2)SC1=S (configuration not stated),–,–,–,10.4 µM (active),–,–,–,–,–,–,–,–,–,–,–,–,–,–,–,–
O=C(Nc1cccc(C2Nc3ccc4ccccc4c3C3C=CCC32)c1)c1ccc(F)cc1 (configuration not stated),–,–,–,–,> 3.98 µM (inactive),0.501 µM (active),> 2.51 µM (inactive),1.26 µM (active),5.01 µM (active),> 2.51 µM (inactive),1.26 µM (active),3.98 µM (active),> 2.51 µM (inactive),1.26 µM (active),> 3.16 µM (inactive),> 3.98 µM (inactive),0.794 µM (active),> 3.98 µM (inactive),3.16 µM (active),0.316 µM (active)
Cc1ccc(-c2cc(-c3cc(Br)ccc3O)[nH]c(=O)c2C#N)s1,–,–,–,–,1.58 µM (active),1.58 µM (active),> 2.51 µM (inactive),> 2.51 µM (inactive),> 6.31 µM (inactive),0.794 µM (active),0.251 µM (active),> 3.98 µM (inactive),0.398 µM (active),0.794 µM (active),> 3.16 µM (inactive),> 3.98 µM (inactive),1.26 µM (active),> 3.98 µM (inactive),2 µM (active),> 2.51 µM (inactive)
CCCC(=O)NC(c1cccs1)c1cc(Cl)c2cccnc2c1O (configuration not stated),–,3.76 µM (active),–,–,–,–,–,–,–,–,–,–,–,–,–,–,–,–,–,–
